# Measurements as given in ChEMBL document CHEMBL1671703, “Bile acids improve the antimicrobial effect of rifaximin” (2010).
# Active and inactive are the calls of the source. The rule behind the calls is not given here.
# Assays:
# Escherichia coli [1] = assay: Antimicrobial activity against Escherichia coli H10407 assessed as decrease in cell density at 16 ug/ml after 4 hrs in presence of 4 mM cholic acid; type: functional, ETEC H10407
# Escherichia coli [2] = assay: Antimicrobial activity against Escherichia coli H10407 assessed as decrease in cell density at 16 ug/ml after 4 hrs in presence of 4 mM glycocholic acid; type: functional, ETEC H10407
# Escherichia coli [3] = assay: Inhibition of RNA synthesis in Escherichia coli H10407 assessed as inhibition of beta-galactosidase expression at 8 ug/ml in presence of 4 mM bile acid; type: functional, ETEC H10407
# Escherichia coli [4] = assay: Antimicrobial activity against Escherichia coli H10407 assessed as decrease in cell density at 16 ug/ml after 4 hrs in presence of 4 mM chenodeoxycholic acid; type: functional, ETEC H10407
# Escherichia coli [5] = assay: Inhibition of RNA synthesis in Escherichia coli H10407 assessed as inhibition of beta-galactosidase expression at 32 ug/ml in presence of 4 mM bile acid; type: functional, ETEC H10407
# Escherichia coli [6] = assay: Antimicrobial activity against Escherichia coli H10407 assessed as decrease in cell density at 16 ug/ml after 4 hrs in presence of 4 mM pooled synthetic bile acid; type: functional, ETEC H10407
# Escherichia coli [7] = assay: Antimicrobial activity against Escherichia coli H10407 assessed as decrease in cell density at 16 ug/ml after 4 hrs in presence of 4 mM human bile acid; type: functional, ETEC H10407
# Escherichia coli [8] = assay: Antimicrobial activity against Escherichia coli H10407 assessed as decrease in cell density at 16 ug/ml after 4 hrs; type: functional; settings: ETEC H10407
# Escherichia coli [9] = assay: Inhibition of RNA synthesis in Escherichia coli H10407 assessed as inhibition of beta-galactosidase expression relative to control; type: functional; settings: ETEC H10407
# Escherichia coli [10] = assay: Bacteriostatic activity against Escherichia coli H10407 at 8 ug/ml in presence of bile acid relative to absence of bile acid; type: functional, ETEC H10407
# Escherichia coli [11] = assay: Inhibition of RNA synthesis in Escherichia coli H10407 assessed as inhibition of beta-galactosidase expression at 16 ug/ml in presence of […] bile acid; type: functional, ETEC H10407
# Escherichia coli [12] = assay: Antimicrobial activity against Escherichia coli H10407 assessed as decrease in cell density at 16 ug/ml after 4 hrs in presence of 4 mM taurocholic acid; type: functional, ETEC H10407
# Escherichia coli [13] = assay: Antimicrobial activity against Escherichia coli H10407 assessed as growth inhibition at 16 ug/ml; type: functional; settings: ETEC H10407
# Escherichia coli [14] = assay: Decrease in protein expression in Escherichia coli H10407 at 16 ug/ml after 4 hrs; type: functional, ETEC H10407; design: scale not given: the % may be the effect or the level left
# Escherichia coli [15] = assay: Bacteriostatic activity against Escherichia coli H10407 at 16 ug/ml in presence of bile acid relative to absence of bile acid; type: functional, ETEC H10407
# Escherichia coli [16] = assay: Antimicrobial activity against Escherichia coli H10407 assessed as decrease in cell density at 16 ug/ml after 4 hrs in presence of 4 mM lithocholic acid; type: functional, ETEC H10407
# Escherichia coli [17] = assay: Antimicrobial activity against Escherichia coli H10407 assessed as decrease in cell density at 16 ug/ml after 4 hrs in presence of 4 mM deoxycholic acid; type: functional, ETEC H10407
compound,measurement,setting,value
CO[C@H]1/C=C/O[C@@]2(C)Oc3c(C)c(O)c4c(O)c(c5c(nc6cc(C)ccn65)c4c3C2=O)NC(=O)/C(C)=C\C=C\[C@H](C)[C@H](O)[C@@H](C)[C@@H](O)[C@@H](C)[C@H](OC(C)=O)[C@@H]1C [RIFAXIMIN],inhibition (INH),Escherichia coli [1],95.5%
same,inhibition (INH),Escherichia coli [2],80.8%
same,inhibition (INH),Escherichia coli [3],33%
same,inhibition (INH),Escherichia coli [4],89.2%
same,inhibition (INH),Escherichia coli [5],82%
same,inhibition (INH),Escherichia coli [6],70.6%
same,inhibition (INH),Escherichia coli [7],72.8%
same,Activity,Escherichia coli [8],Active
same,inhibition,Escherichia coli [9],Active
same,fold change (FC),Escherichia coli [10],2
same,inhibition (INH),Escherichia coli [11],49%
same,inhibition (INH),Escherichia coli [12],77.6%
same,inhibition,Escherichia coli [13],Active
same,Activity,Escherichia coli [14],59%
same,fold change (FC),Escherichia coli [15],5.5
same,inhibition (INH),Escherichia coli [16],43.9%
same,inhibition (INH),Escherichia coli [17],93.8%
